In PubChem BioAssay (NCI):
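Where inhibition never reached the appropriate level, the endpoint shown equals the highest concentration tested. Otherwise, values were interpolated linearly from a five-concentration, 48-hour dose response in 96-well plates. TGI denotes the concentration required for complete inhibition of growth.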

Legend:
Assay in all cases: inhibition of tumour cell growth, NCI panel, 48 h
LOX IMVI melanoma = test system: LOX IMVI melanoma
HT29 colon = test system: HT29 colon
UO-31 renal = test system: UO-31 renal
UACC-62 melanoma = test system: UACC-62 melanoma
K-562 leukemia = test system: K-562 leukemia
A549 NSCLC = test system: A549 NSCLC
BT-549 breast = test system: BT-549 breast
SN12C renal = test system: SN12C renal
NCI-H522 lung = test system: NCI-H522 lung
NCI-H23 lung = test system: NCI-H23 lung
HCC-2998 colon = test system: HCC-2998 colon
OVCAR-5 ovarian = test system: OVCAR-5 ovarian
MDA-N = test system: MDA-N
MDA-MB-435 = test system: MDA-MB-435
SW-620 colon = test system: SW-620 colon
DU-145 prostate = test system: DU-145 prostate
IGROV1 ovarian = test system: IGROV1 ovarian
MDA-MB-231 breast = test system: MDA-MB-231 breast
U251 CNS = test system: U251 CNS
SF-295 CNS = test system: SF-295 CNS
EKVX NSCLC = test system: EKVX NSCLC
OVCAR-8 ovarian = test system: OVCAR-8 ovarian
RPMI-8226 leukemia = test system: RPMI-8226 leukemia
MCF7 breast = test system: MCF7 breast
MALME-3M melanoma = test system: MALME-3M melanoma
SK-MEL-28 melanoma = test system: SK-MEL-28 melanoma
CCRF-CEM leukemia = test system: CCRF-CEM leukemia
MOLT-4 leukemia = test system: MOLT-4 leukemia
TK-10 renal = test system: TK-10 renal
SNB-19 CNS = test system: SNB-19 CNS
ACHN renal = test system: ACHN renal
HOP-62 NSCLC = test system: HOP-62 NSCLC
T-47D breast = test system: T-47D breast
UACC-257 melanoma = test system: UACC-257 melanoma
CAKI-1 renal = test system: CAKI-1 renal
OVCAR-3 ovarian = test system: OVCAR-3 ovarian
SK-MEL-5 melanoma = test system: SK-MEL-5 melanoma
SR leukemia = test system: SR leukemia
OVCAR-4 ovarian = test system: OVCAR-4 ovarian
HL-60(TB) leukemia = test system: HL-60(TB) leukemia
COLO 205 colon = test system: COLO 205 colon
RXF 393 renal = test system: RXF 393 renal
HOP-92 NSCLC = test system: HOP-92 NSCLC
KM12 colon = test system: KM12 colon
PC-3 prostate = test system: PC-3 prostate
SF-539 CNS = test system: SF-539 CNS
786-0 renal = test system: 786-0 renal
HS 578T breast = test system: HS 578T breast
NCI-H226 lung = test system: NCI-H226 lung
HCT-15 colon = test system: HCT-15 colon
M14 melanoma = test system: M14 melanoma
A498 renal = test system: A498 renal
NCI-H460 lung = test system: NCI-H460 lung
NCI/ADR-RES ovarian = test system: NCI/ADR-RES ovarian
SNB-75 CNS = test system: SNB-75 CNS
SK-OV-3 ovarian = test system: SK-OV-3 ovarian
HCT-116 colon = test system: HCT-116 colon
SK-MEL-2 melanoma = test system: SK-MEL-2 melanoma
SF-268 CNS = test system: SF-268 CNS

Measured: TGI

Cc1c(-c2ccccc2)cc(O)c2nc3ccccc3n12
not listed: SK-OV-3 ovarian | HCT-116 colon | SK-MEL-2 melanoma | SF-268 CNS
> 100 µM: all other assays above

O=NNc1ccc2ccccc2n1
not listed: HCC-2998 colon | MALME-3M melanoma | COLO 205 colon | RXF 393 renal | HOP-92 NSCLC
> 100 µM: all other assays above
